These results are taken from paper PMC7534311, “Sulphonamide inhibition profile of Staphylococcus aureus β-carbonic anhydrase” (Journal of Enzyme Inhibition and Medicinal Chemistry, 2020).

pKi: −log10 of the molar value.

In one assay the target is T1, SauBCA (β-carbonic anhydrase from Staphylococcus aureus) (Staphylococcus aureus, UniProt A0AAJ4SIE8).
T1 sequence (A0AAJ4SIE8 1-189): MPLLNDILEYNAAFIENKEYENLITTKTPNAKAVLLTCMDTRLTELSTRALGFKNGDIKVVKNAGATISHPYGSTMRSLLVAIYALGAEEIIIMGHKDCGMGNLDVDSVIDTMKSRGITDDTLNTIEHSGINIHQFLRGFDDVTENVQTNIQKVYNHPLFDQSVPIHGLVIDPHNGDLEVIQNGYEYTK
Put plainly: Stopped-flow CO2 hydration inhibition assay, SauBCA. The assay is classed as biochemical. To be noted: Ki SauBCA, recombinant SauBCA, stopped-flow CO2 hydration, mean from three assays, errors ±5–10%. Here is the method:
An Applied Photophysics stopped-flow instrument was used for assaying CA-catalysed CO2 hydration activity. […] Six traces of the initial 5 − 10% of the reaction were used to determine the initial velocity. The uncatalysed rates were determined in the same manner and subtracted from the total observed rates. A stock solution of inhibitor (0.1 mM) was prepared in distilled-deionized water, and dilutions of up to 0.01 nM were prepared thereafter with distilled-deionized water. Inhibitor (I) and enzyme (E) solutions were preincubated together for 15 min at RT prior to the assay to allow formation of the E − I complex. Inhibition constants were obtained by using the Cheng-Prusoff equation and nonlinear least squares methods (with PRISM 3) and are presented as the means from at least three different determinations. Kinetic constants were obtained using Lineweaver-Burke plots as reported earlier.
`Nc1ccc(S(N)(=O)=O)cc1` [compound 2]: the negative-log Ki (pKi) (usually −log10 of the Ki, conventionally taken in molar units) was 6.39.

The same assay, now with this note: read-out: Ki SauBCA.
Turning to `CCN[C@H]1CN(CCCOC)S(=O)(=O)c2sc(S(N)(=O)=O)cc21` [BRZ, brinzolamide], the pKi was 6.09.

On to `Cc1ccc(-c2cc(C(F)(F)F)nn2-c2ccc(S(N)(=O)=O)cc2)cc1` [CLX, celecoxib], for which the negative-log Ki (pKi) was 6.06.

In the case of `CC(=O)/N=c1/sc(S(N)(=O)=O)nn1C` [MZA, methazolamide], the negative-log Ki (pKi) is 6.06.

Regarding `CC1(C)O[C@@H]2[C@@H](CO[C@@]3(COS(N)(=O)=O)OC(C)(C)O[C@@H]23)O1` [TPM], the negative logarithm of the Ki (pKi) was 6.33.

As for `Cc1onc(-c2ccccc2)c1-c1ccc(S(N)(=O)=O)cc1` [VLX], the negative-log Ki (pKi) was 6.29.

In the case of `NS(=O)(=O)Cc1noc2ccccc12` [ZNS, zonisamide], the negative logarithm of the Ki (pKi) is 5.34.

Consider `Nc1nccc(Nc2ccc(S(N)(=O)=O)cc2)n1` [compound 19], for which the pKi was 6.04.

The same assay, now with this note: recombinant SauBCA, stopped-flow CO2 hydration, mean from three assays, errors ±5–10%; read-out: Ki SauBCA.
Consider `NS(=O)(=O)NCCNc1nonc1C(=NO)Nc1ccc(F)c(Br)c1` [EPA, epacadostat], for which the negative-log Ki (pKi) was 6.27.

In the case of `O=C1NS(=O)(=O)c2ccccc21` [SAC], the negative-log Ki (pKi) is 6.18.

In the case of `NS(=O)(=O)c1cccc(S(N)(=O)=O)c1` [compound 3], the pKi is 7.02.

On to `Cc1ccc(S(N)(=O)=O)cc1` [compound 4], for which the pKi is 7.08.

For the compound `NCc1ccc(S(N)(=O)=O)cc1` [compound 5], the negative-log Ki (pKi) was 6.71.

As to `Nc1ccc(S(N)(=O)=O)cc1Cl` [compound 8], the pKi was 7.02.

Take `Nc1ccc(S(N)(=O)=O)cc1Br` [compound 9]: the negative-log Ki (pKi) was 7.12.

As to `NS(=O)(=O)c1cc(Cl)cc(Cl)c1O` [compound 10], the negative logarithm of the Ki (pKi) was 6.69.

In the case of `Nc1nnc(S(N)(=O)=O)s1` [compound 13], the pKi is 6.38.

For the compound `NS(=O)(=O)c1ccc(CO)cc1` [compound 16], the pKi is 6.22.

Take `Nc1ccc(S(=O)(=O)Nc2nnc(S(N)(=O)=O)s2)cc1` [compound 20]: the pKi was 7.04.

With `NS(=O)(=O)c1ccc(CCNS(=O)(=O)c2ccc([N+](=O)[O-])cc2CO)cc1` [compound 21], the pKi was 7.07.

In the case of `Nc1ccc(S(=O)(=O)Nc2ccc(S(N)(=O)=O)cc2)cc1` [compound 22], the pKi is 7.08.

`Nc1ccc(S(=O)(=O)NCc2ccc(S(N)(=O)=O)cc2)cc1` [compound 23]: the negative-log Ki (pKi) is 7.04.

Turning to `Nc1ccc(S(=O)(=O)NCCc2ccc(S(N)(=O)=O)cc2)cc1` [compound 24], the negative-log Ki (pKi) was 7.02.

In the next assay the target is hCA II.
Assay: not given
To be noted: human recombinant isozyme, Table 2; cited from earlier work.
For `NS(=O)(=O)NCCNc1nonc1C(=NO)Nc1ccc(F)c(Br)c1` [EPA, epacadostat], the pKi was 6.04.

For `NC(N)=Nc1nc(CSCCC(N)=NS(N)(=O)=O)cs1` [FAM, famotidine], the negative logarithm of the Ki (pKi) was 7.24.
